{"source": "patent US20080004272A1", "about": "“Compositions and methods for modulating gated ion channels” (PainCeptor Pharma Corporation, priority 2006, published 2008)", "key": {"ASIC1a": {"target": "T1, ASIC1a (Homo sapiens, UniProt P78348)", "T1 sequence (P78348 1-528)": "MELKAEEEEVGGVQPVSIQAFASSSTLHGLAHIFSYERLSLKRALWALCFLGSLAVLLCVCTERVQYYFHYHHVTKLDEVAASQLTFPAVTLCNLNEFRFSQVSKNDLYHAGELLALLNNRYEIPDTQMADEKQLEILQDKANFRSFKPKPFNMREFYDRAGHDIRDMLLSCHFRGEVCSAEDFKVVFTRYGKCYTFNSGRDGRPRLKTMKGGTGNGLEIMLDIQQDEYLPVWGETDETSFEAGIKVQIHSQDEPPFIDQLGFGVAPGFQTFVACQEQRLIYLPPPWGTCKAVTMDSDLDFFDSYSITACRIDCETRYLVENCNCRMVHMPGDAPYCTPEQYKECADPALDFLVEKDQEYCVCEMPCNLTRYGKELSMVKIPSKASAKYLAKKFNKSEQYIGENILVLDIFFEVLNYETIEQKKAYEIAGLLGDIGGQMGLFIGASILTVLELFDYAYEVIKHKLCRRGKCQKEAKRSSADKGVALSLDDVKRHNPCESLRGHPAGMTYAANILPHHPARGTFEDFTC", "assay": "Two-electrode voltage clamp in Xenopus laevis oocytes (Xo), acid-induced currents", "type": "cell-based", "parameters": "expressed in transfected cells; host or cells: Xenopus laevis oocytes (nuclear microinjection of expression vector such as pcDNA3)", "conditions": "for inhibition at 50 µM: Xenopus oocytes, read-out: % inh. at 50 μM (Xo)", "in_short": "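Defolliculated oocytes were nuclear-injected with channel cDNA and expressed for 2–4 days at 19 °C. Under two-electrode voltage clamp at room temperature, oocytes were superfused with pH 7.4 Ringer, and currents were evoked by switching to acidic MES Ringer (pH<7). Compound was present in both control and acidic solutions.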"}, "formalin-induced pain": {"tested_on": "formalin-induced pain", "assay": "Formalin test, model of acute tonic pain", "type": "in vivo", "conditions": "rat; for Effect on pain intensity (flinching or licking behaviors): s.c. 30 min prior to formalin injection; for ED50: sc, s.c. 30 min prior to formalin, licking and biting episodes in phase IIa, read-out: ED50, effective dose where the pain score is reduced by half", "description": "Male Sprague-Dawley rats are housed together in groups of three animals under standard conditions with unrestricted access to food and water. All experiments are conducted according to the ethical guidelines for investigations of experimental pain in conscious animals (Zimmerman, 1983)\nAssessment of formalin-induced flinching behavior in normal, uninjured rats (body weight 150-180 g) is made with the use of an Automated Nociception Analyser (University of California, San Diego, USA). Briefly, this involves placing a small C-shaped metal band (10 mm wide×27 mm long) on the hindpaw of the rat to be tested. The rats (four rats are included in each testing session) are then placed in a cylindrical plexiglass observation chamber (diameter 30.5 cm and height 15 cm) for 20 min for adaptation purposes prior to being administered drug or vehicle according to the experimental paradigm being followed. After adaptation, individual rats are then gently restrained and formalin (5% in saline, 50 μl, s.c.) is injected into the plantar surface of the hindpaw using a 27G needle. Rats are then returned to their separate observation chambers, each of which are in turn situated upon an enclosed detection device consisting of two electromagnetic coils designed to produce an electromagnetic field in which movement of the metal band could be detected. […] A sampling interval of 1 min is used and on the basis of the resulting response patterns 5 phases of nociceptive behaviour are identified and scored: first phase (P1; 0-5 min), interphase (Int; 6-15 min), second phase (P2; […]), phase 2A (P2A; 16-40 min) and phase 2B (P2B; 41-60 min).\nNociceptive behavior is also determined manually every 5 min by measuring the amount of time spent in each of four behavioral categories: 0, treatment of the injected hindpaw is indistinguishable from that of the contralateral paw; 1, the injected paw has little or no weight placed on it; 2, the injected paw is elevated and is not in contact with any surface; 3, the injected paw is licked, bitten, or shaken. A weighted nociceptive score, ranging from 0 to 3 is calculated by multiplying the time spent in each category by the category weight, summing these products, and dividing by the total time for each 5 min block of time. […] On the basis of the resulting response patterns, […] of nociceptive behavior are identified and scored: first phase (P1; 0-5 min), interphase (Int; 6-15 min), second phase (P2; […]), phase 2A (P2A; 16-40 min) and phase 2B (P2B; 41-60 min).\nStatistical analysis is performed using the Prism™ 4.01 software package (GraphPad, San Diego, Calif., USA). The difference in response levels between treatment groups and control vehicle group is analyzed using an ANOVA followed by Bonferroni's method for post-hoc pair-wise comparisons. […]"}}, "note": "Where two headings read alike, the source gives them in different places.", "data": [{"smiles": "CN1CCc2c(-c3ccccc3)cc(C#N)c(N)c2C1", "note": "[Compound 203, 8-Amino-2-methyl-5-phenyl-1,2,3,4-tetrahydro-isoquinoline-7-carbonitrile]", "values": [{"measurement": "IC50", "setting": "ASIC1a", "value": 6.2, "unit": "µM"}, {"measurement": "inhibition at 50 µM", "setting": "ASIC1a", "value": "> 70", "unit": "%"}, {"measurement": "Effect on pain intensity (flinching or licking behaviors)", "setting": "formalin-induced pain", "value": "dose-dependent reduction of the pain intensity"}, {"measurement": "ED50", "setting": "formalin-induced pain", "value": 6, "unit": "mg/kg"}]}, {"smiles": "COc1ccc(F)cc1-c1cc(C#N)c(N)c2c1CCN(C)C2", "note": "[Compound 206, 8-Amino-5-(5-fluoro-2-methoxy-phenyl)-2-methyl-1,2,3,4-tetrahydro-isoquinoline-7-carbonitrile]", "values": [{"measurement": "inhibition at 50 µM", "setting": "ASIC1a", "value": "50 to 70", "unit": "%"}, {"measurement": "IC50", "setting": "ASIC1a; Xenopus laevis oocytes, three point dose-response, read-out: IC50, half maximal inhibition of the acid-evoked response in hASIC1a", "value": 34, "unit": "µM"}, {"measurement": "Effect on pain intensity (flinching or licking behaviors)", "setting": "formalin-induced pain", "value": "dose-dependent reduction of the pain intensity"}, {"measurement": "ED50", "setting": "formalin-induced pain", "value": 50, "unit": "mg/kg"}]}]}
